Measured values taken from patent US20110039721A1, “METHOD FOR PREDICTION ABOUT CARCINOGENICITY OF SUBSTANCE IN RODENT” (Chemicals Evaluation and Research Institute, priority 2007, published 2011).

Legend:
[1] = classification of the substance (M+/M−); cited from earlier work
[2] = system: liver; conditions: in vivo; cited from earlier work
[3] = system: rodent; conditions: classification of the substance (C+/C−); cited from earlier work
[4] = system: mRNA expressed from the genes (A) to (D) in rat liver; experiment: Behavior of genes (mRNA expression level, oligo-DNA microarray) in rat liver after 28-day oral administration; format: in vivo
Procedure, shortened: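 Groups of four male F344 SPF rats aged 5 weeks are gavaged once a day for 28 days with test chemical in solvent or with solvent alone at equal volume. Total RNA comes from liver taken on day 28. Fold change of 1.5 or 1/1.5 versus control, directionally consistent, defines significance.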

[5] = gene group (A), Unigene No. Rn.167075
[6] = gene group (C), Unigene No. Rn.120914

NC(=O)c1ccccc1C(N)=O [TS073, Phthalamide]
Mutagenicity by Ames test [1]: M− | Liver carcinogenicity [2]: Cr− | Carcinogenicity [3]: C− | Behavior of gene caused by administration of chemical substance, Gene No. 4846 ([4]; gene group (A), Unigene No. Rn.144554): − | Behavior of gene caused by administration of chemical substance, Gene No. 2026 [4, 5]: − | Behavior of gene caused by administration of chemical substance, Gene No. 4218 [4, 5]: − | Behavior of gene caused by administration of chemical substance, Gene No. 6182 ([4]; gene group (A), Unigene No. Rn.5834): − | Behavior of gene caused by administration of chemical substance, Gene No. 5600 ([4]; gene group (A), Unigene No. Rn.9836): − | Behavior of gene caused by administration of chemical substance, Gene No. 1494 ([4]; gene group (B), Unigene No. Rn.1430): − | Behavior of gene caused by administration of chemical substance, Gene No. 2045 ([4]; gene group (B), Unigene No. Rn.19329): + | Behavior of gene caused by administration of chemical substance, Gene No. 2203 ([4]; gene group (B), Unigene No. Rn.21240): − | Behavior of gene caused by administration of chemical substance, Gene No. 533 ([4]; gene group (C), Unigene No. Rn.106184): − | Behavior of gene caused by administration of chemical substance, Gene No. 725 ([4]; gene group (C), Unigene No. Rn.108075): − | Behavior of gene caused by administration of chemical substance, Gene No. 1163 ([4]; gene group (C), Unigene No. Rn.11766): − | Behavior of gene caused by administration of chemical substance, Gene No. 4973 ([4]; gene group (C), Unigene No. Rn.118529): − | Behavior of gene caused by administration of chemical substance, Gene No. 4095 ([4]; gene group (C), Unigene No. Rn.119024): − | Behavior of gene caused by administration of chemical substance, Gene No. 1334 [4, 6]: − | Behavior of gene caused by administration of chemical substance, Gene No. 6620 [4, 6]: − | Behavior of gene caused by administration of chemical substance, Gene No. 6303 ([4]; gene group (C), Unigene No. Rn.123063): − | Behavior of gene caused by administration of chemical substance, Gene No. 5878 ([4]; gene group (C), Unigene No. Rn.143213): − | Behavior of gene caused by administration of chemical substance, Gene No. 1131 ([4]; gene group (C), Unigene No. Rn.144946): − | Behavior of gene caused by administration of chemical substance, Gene No. 1562 ([4]; gene group (C), Unigene No. Rn.14744): − | Behavior of gene caused by administration of chemical substance, Gene No. 1741 ([4]; gene group (C), Unigene No. Rn.1647): − | Behavior of gene caused by administration of chemical substance, Gene No. 893 ([4]; gene group (C), Unigene No. Rn.164817): − | Behavior of gene caused by administration of chemical substance, Gene No. 6026 ([4]; gene group (C), Unigene No. Rn.167685): − | Behavior of gene caused by administration of chemical substance, Gene No. 154 ([4]; gene group (C), Unigene No. Rn.185941): − | Behavior of gene caused by administration of chemical substance, Gene No. 1993 ([4]; gene group (C), Unigene No. Rn.18728): − | Behavior of gene caused by administration of chemical substance, Gene No. 813 ([4]; gene group (C), Unigene No. Rn.201760): − | Behavior of gene caused by administration of chemical substance, Gene No. 2494 ([4]; gene group (C), Unigene No. Rn.23969): − | Behavior of gene caused by administration of chemical substance, Gene No. 2546 ([4]; gene group (C), Unigene No. Rn.24561): − | Behavior of gene caused by administration of chemical substance, Gene No. 3776 ([4]; gene group (C), Unigene No. Rn.43232): − | Behavior of gene caused by administration of chemical substance, Gene No. 3929 ([4]; gene group (C), Unigene No. Rn.4620): − | Behavior of gene caused by administration of chemical substance, Gene No. 1119 ([4]; gene group (C), Unigene No. Rn.9757): − | Behavior of gene caused by administration of chemical substance, Gene No. 6742 ([4]; gene group (C), Unigene No. Rn.9779): − | Behavior of gene caused by administration of chemical substance, Gene No. 5634 ([4]; gene group (C), Unigene No. Rn.9862): − | Behavior of gene caused by administration of chemical substance, Gene No. 5726 ([4]; gene group (D), Unigene No. Rn.9939): −
